Results on 98 compounds are retold here after ChEMBL document CHEMBL3507680, “University of Dundee, Gates Library screen for HepG2 cell viability”.

The series in a line: Human HepG2 cell viability assay in 384 well format. The class given is toxicity, cell-based. Also on record: dose 125 nL, time 70.5 hour; cytotoxicity at 70.5 h: concentration not given beside the values. Conditions: HepG2 cells, read-out: Inhibition.

Take `CNC(=O)CN([C@H]1C[C@H]2CCOC[C@H]2C1)S(=O)(=O)c1ccccc1`: the cytotoxicity at 70.5 h is -5.55%.

For `O=C(O)CN(C(=O)c1ccccc1)[C@H]1C[C@H]2CCOC[C@H]2C1`, the cytotoxicity at 70.5 h is -10.1%.

Consider `OC[C@@H]1CN2CCN(c3ccccn3)C[C@@H]2[C@H]1c1ccccc1`, for which the cytotoxicity at 70.5 h is -7.31%.

As to `CN1CC[C@H](N(Cc2ccccc2)Cc2ccccc2)C[C@H](O)C1`, the cytotoxicity at 70.5 h was determined as 11.2%.

Take `COCCN(C)C[C@@H]1CN(C(=O)c2c(F)ccc(OC)c2F)C[C@@H]1CO`: the cytotoxicity at 70.5 h is 47.7%.

With `O=C(CSc1ccccn1)N1CCN(CCO)[C@@H]2CS(=O)(=O)C[C@@H]21`, the cytotoxicity at 70.5 h came out at 2.3%.

Consider `CC(C)[C@@H]1CN(C(=O)CN(C)Cc2ccccc2)C[C@H]1C(=O)O`, for which the cytotoxicity at 70.5 h is -6.53%.

As for `COc1ccccc1OC1CCN(C(=O)CCCn2ccnc2)CC1`, the cytotoxicity at 70.5 h is -6.19%.

With `CCN(CC1CCOCC1)C(=O)Cn1cccc(C(F)(F)F)c1=O`, the cytotoxicity at 70.5 h was -7.19%.

`CSCc1noc(CNC(=O)[C@H]2CNC[C@@H](C(=O)N3CCCC3)C2)n1`: the cytotoxicity at 70.5 h was -14.4%.

As to `CN(Cc1cccc2cnccc12)C(=O)CCc1n[nH]c2c1CCCC2`, the cytotoxicity at 70.5 h is -9.31%.

In the case of `CC(C)c1ncc(-c2cc(C3CCC3)nc(N)c2C#N)cn1`, the cytotoxicity at 70.5 h is -8.31%.

Take `Fc1cnc(N2CCN(Cc3ccc(-c4cc[nH]n4)o3)CC2)nc1`: the cytotoxicity at 70.5 h was -3.42%.

With `Cc1nn(C)c(Oc2ccc(Cl)cc2)c1CN1CCOC(CN)C1` (stereo not drawn), the cytotoxicity at 70.5 h is -2.25%.

As to `O=C(c1cc[nH]n1)N1CCC(c2nccn2Cc2ccncc2)CC1`, the cytotoxicity at 70.5 h came out at 0.529%.

Take `CC(C)CN1C(=O)CC[C@H]2CN(C(=O)c3ncc[nH]3)CC[C@H]21`: the cytotoxicity at 70.5 h is -0.867%.

As to `CO[C@@]1(C)C[C@@H](O)C12CCN(C(=O)c1ccccc1C(C)=O)CC2`, the cytotoxicity at 70.5 h was -7.26%.

On to `C=C(C)COc1ccccc1NC(=O)N1CCCCC1CO` (stereo not drawn), for which the cytotoxicity at 70.5 h was found to be 4.81%.

Turning to `COC(=O)[C@H](CSC)Nc1nc(C2CCCC2)nc2c1cnn2C`, the cytotoxicity at 70.5 h was -8.48%.

On to `COC(C)(C)CC(C)NCc1cc(-c2ccco2)on1` (stereo not drawn), for which the cytotoxicity at 70.5 h was -11.4%.

Regarding `CCC[C@H]1CN(S(=O)(=O)N(C)Cc2ccccc2)C[C@@H]1N`, the cytotoxicity at 70.5 h came out at 1.2%.

As to `NC(=O)c1ccnc(N2CCCC(CO)(Cc3ccccc3)C2)c1` (stereo not drawn), the cytotoxicity at 70.5 h was -5.88%.

As to `Nc1nc2c(c(NCC(c3cccnc3)N3CCOCC3)n1)CCCC2` (stereo not drawn), the cytotoxicity at 70.5 h was -12.1%.

For the compound `Cc1ocnc1C(=O)N1CCN(C(=O)CC(C)C)[C@@H]2CS(=O)(=O)C[C@@H]21`, the cytotoxicity at 70.5 h stood at 31.4%.

Regarding `COc1cc(CNc2ccc(C)c(Cl)c2)ccc1OCC(N)=O`, the cytotoxicity at 70.5 h is -11.9%.

Regarding `O=C(NCCC1COc2ccccc2O1)c1ccc(-c2cn[nH]c2)nc1` (stereo not drawn), the cytotoxicity at 70.5 h came to 4.75%.

For the compound `O=C1CN(c2cc(-c3ccccc3F)nc3ccnn23)CCCN1`, the cytotoxicity at 70.5 h is -14.6%.

On to `CCCc1nc(CN(CC)C(=O)c2onc3ccccc23)no1`, for which the cytotoxicity at 70.5 h is 17%.

Turning to `CCc1nc(C)c(C(=O)NCC2COc3cc(OC)ccc3C2)o1` (stereo not drawn), the cytotoxicity at 70.5 h turned out to be 42.6%.

On to `Cc1ccc([C@H]2CN(C(C)C)C[C@@H]2NS(=O)(=O)N2CCOCC2)o1`, for which the cytotoxicity at 70.5 h is -5.29%.

For the compound `OC1(CN2CCCC2)COCCN(c2nccs2)C1` (stereo not drawn), the cytotoxicity at 70.5 h is 37.8%.

In the case of `COc1ccc(CN2C[C@@H](CN(C)C)[C@@H](CO)C2)c(Cl)c1OC`, the cytotoxicity at 70.5 h is -7.01%.

Regarding `Cc1nccc(N[C@H]2CN(CC(C)(C)N3CCOCC3)C[C@@H]2C2CC2)n1`, the cytotoxicity at 70.5 h worked out at 20.2%.

For the compound `CC(C)c1nc(C2CCCN(C(=O)CCCn3cccn3)C2)no1` (stereo not drawn), the cytotoxicity at 70.5 h was -4.14%.

Regarding `Fc1ccc(-c2nnc(CN3CCCC3Cn3cccn3)o2)cc1` (stereo not drawn), the cytotoxicity at 70.5 h is -19.8%.

Turning to `Clc1ccccc1-c1nnc(CN2CCCC2Cn2cncn2)o1` (stereo not drawn), the cytotoxicity at 70.5 h was -2.55%.

As for `CCC(O)CN1CCN(C(=O)c2cc3ccccc3n2CC)CC1` (stereo not drawn), the cytotoxicity at 70.5 h stood at 12.7%.

Take `CC(C)OCCCNC(=O)CS(=O)(=O)Cc1ccc(C(C)C)cc1`: the cytotoxicity at 70.5 h is -0.615%.

As to `CC(C)OCCCNC(=O)CS(=O)(=O)Cc1ccc(C(C)(C)C)cc1`, the cytotoxicity at 70.5 h was -5.34%.

For `CC(C)CS(=O)(=O)CC(=O)NC1CCCCNC1=O` (stereo not drawn), the cytotoxicity at 70.5 h is -7.58%.

As to `CCN(CC)S(=O)(=O)N(CC)Cc1ccc2c(c1)OCCO2`, the cytotoxicity at 70.5 h was -10.6%.

As to `CCC(CC)c1nnc(NC(=O)NC(C)Cn2cccn2)s1` (stereo not drawn), the cytotoxicity at 70.5 h was found to be 12.3%.

Turning to `CN(C)c1ncccc1CNC(=O)NCc1ccc(Cl)s1`, the cytotoxicity at 70.5 h is -10.4%.

`Cc1nnc(NC(=O)NC(C)Cn2cccn2)s1` (stereo not drawn): the cytotoxicity at 70.5 h was -7.53%.

As for `CC(NC(=O)NCc1cccs1)c1ccc2c(c1)CCC(=O)N2` (stereo not drawn), the cytotoxicity at 70.5 h was -4.6%.

Consider `CN(C)c1ncccc1CNC(=O)NCc1cccs1`, for which the cytotoxicity at 70.5 h came out at 1.41%.

Turning to `COC(=O)C(NC(=O)CCOC(C)C)c1cc(F)ccc1F` (stereo not drawn), the cytotoxicity at 70.5 h was 18.1%.

`COC(=O)C(NC(=O)C1CC1)c1cc(F)ccc1F` (stereo not drawn): the cytotoxicity at 70.5 h is -0.233%.

As for `CCOCC(O)CN1CCN(C(=O)c2ccccc2F)CC1` (stereo not drawn), the cytotoxicity at 70.5 h is -1.86%.

With `CCNc1cc2c(nn1)CCN(C(=O)c1cccc3c1OCO3)C2`, the cytotoxicity at 70.5 h stood at 3.22%.

`CNc1cc2c(nn1)CCN(C(=O)c1ccc3c(c1)OCO3)C2`: the cytotoxicity at 70.5 h is -8.95%.

As to `Nc1cc2c(nn1)CCN(C(=O)c1cccc3c1OCO3)C2`, the cytotoxicity at 70.5 h was found to be 2.4%.

As to `Cc1cnn(CCC(=O)N2CCCC(c3noc(C)n3)C2)c1` (stereo not drawn), the cytotoxicity at 70.5 h was determined as 1.71%.

As for `O=C(CCN1CCOC(CNc2cccnn2)C1)NC1CCCCC1` (stereo not drawn), the cytotoxicity at 70.5 h was 11.1%.

As to `NC(=O)C1CCN(C(=O)c2cccn2Cc2cccs2)CC1`, the cytotoxicity at 70.5 h is -4.99%.

Take `CC(NC(=O)NCCS(C)(=O)=O)c1ccc2c(c1)CCC(=O)N2` (stereo not drawn): the cytotoxicity at 70.5 h is 2.87%.

Take `Cc1nc(C)c(CN2CCC(N(C)Cc3noc(C4CC4)n3)C2)s1` (stereo not drawn): the cytotoxicity at 70.5 h was found to be 21.6%.

On to `Cc1csc(C2CCCCN2C(=O)c2cn[nH]c2C)n1` (stereo not drawn), for which the cytotoxicity at 70.5 h is 16.7%.

For the compound `CCc1cnc(CN2CCC(N(C)Cc3noc(C)n3)C2)o1` (stereo not drawn), the cytotoxicity at 70.5 h was determined as 17%.

Consider `Cc1nn(C)c(C)c1C1CCCN1C(=O)CCCNc1ncccn1` (stereo not drawn), for which the cytotoxicity at 70.5 h was -8.51%.

Take `CNS(=O)(=O)c1cccc(C(=O)N(C)Cc2ccsc2)c1`: the cytotoxicity at 70.5 h is -7.55%.

With `Cc1nn(C)c(C)c1C1CCCN1C(=O)CCCc1ccccn1` (stereo not drawn), the cytotoxicity at 70.5 h was -4.63%.

For the compound `CC(=O)NCc1ccc(C(=O)N2CCCC2c2cnn(C)c2)cc1` (stereo not drawn), the cytotoxicity at 70.5 h is -6.89%.

`CN(Cc1ccccc1)C(=O)CN1CCCC(Cn2cncn2)C1` (stereo not drawn): the cytotoxicity at 70.5 h is -7.31%.

Take `COc1ccc(CCNC(=O)N2CCCC(c3nncn3C)C2)cc1` (stereo not drawn): the cytotoxicity at 70.5 h was -4.56%.

Take `Cc1nc(CN(C)C2CCN(Cc3cnc(C)s3)C2)no1` (stereo not drawn): the cytotoxicity at 70.5 h was -3.46%.

For `Cc1nnc(NC(=O)NCc2ccc(F)cc2)s1`, the cytotoxicity at 70.5 h is -1.95%.

As for `Cc1nnc(NC(=O)NCc2ccc(N3CCC(C)CC3)nc2)s1`, the cytotoxicity at 70.5 h was -8.92%.

`Cc1nnc(NC(=O)NCc2ccc(N3CCOCC3)nc2)s1`: the cytotoxicity at 70.5 h is -5.81%.

On to `CCN(CC)CCn1c(NC(=O)c2scnc2C)nc2ccccc21`, for which the cytotoxicity at 70.5 h came to 5.56%.

Consider `Cn1cnnc1C1CCCN(C(=O)NCCn2ccnc2)C1` (stereo not drawn), for which the cytotoxicity at 70.5 h is -10.4%.

As for `CCOCCCn1c(NC(=O)c2ccnc(C)n2)nc2ccccc21`, the cytotoxicity at 70.5 h came to 25.9%.

Turning to `CN(Cc1ccco1)C(=O)CN1CCCC1Cn1cncn1` (stereo not drawn), the cytotoxicity at 70.5 h came to 3.18%.

For `Cc1ccc(CN(C)C(=O)CN2CCCC(Cn3cncn3)C2)cc1` (stereo not drawn), the cytotoxicity at 70.5 h is 22.9%.

For the compound `Cc1csc(C2CCCCN2C(=O)c2cc(C3CC3)[nH]n2)n1` (stereo not drawn), the cytotoxicity at 70.5 h was -2.5%.

As for `CC(=O)N1CCCC1C(=O)NCCOc1c(C)cccc1C` (stereo not drawn), the cytotoxicity at 70.5 h was -1.77%.

Take `CCc1nc2n(n1)CC(NCc1cc(OC)c3c(c1)OCO3)CC2` (stereo not drawn): the cytotoxicity at 70.5 h turned out to be 1.22%.

On to `CN(CC(C)(C)O)C1CCCN(Cc2noc(C3CC3)n2)C1` (stereo not drawn), for which the cytotoxicity at 70.5 h came to 41.7%.

In the case of `Cc1cnn(CC(C)NCC(=O)NCCOc2ccccc2)c1` (stereo not drawn), the cytotoxicity at 70.5 h amounted to 11.7%.

Turning to `Cc1cnn(CCNCC(=O)NCCOc2ccc(F)cc2)c1`, the cytotoxicity at 70.5 h is -9.5%.

On to `CC(C)c1ncncc1C(=O)N1CCCN(Cc2ccccc2)CC1`, for which the cytotoxicity at 70.5 h is -15.3%.

For `c1ccc(Cc2noc(CN3CCc4c(ncn4C4CC4)C3)n2)cc1`, the cytotoxicity at 70.5 h is 11.8%.

As to `Cc1cc(CN2CCN(C(=O)NCc3csc(C)n3)CC2)on1`, the cytotoxicity at 70.5 h is -13%.

Take `O=C(NCCNc1ncccn1)c1ccc(Br)cc1`: the cytotoxicity at 70.5 h is -15.1%.

On to `Cc1cc(CN2CCN(C(=O)NCc3cccs3)CC2)on1`, for which the cytotoxicity at 70.5 h was -14.6%.

Regarding `Cc1cccc(CN(Cc2nc3c(cnn3C)c(=O)[nH]2)C2CC2)c1`, the cytotoxicity at 70.5 h was -6.88%.

Regarding `CN(Cc1ccc2c(c1)OCCO2)Cc1nc2c(cnn2C)c(=O)[nH]1`, the cytotoxicity at 70.5 h was -5.53%.

With `CC(C)OCCCNC(=O)CN1C=Nc2ccccc2S1(=O)=O`, the cytotoxicity at 70.5 h is -7.79%.

Consider `CCCNC(=O)NC(=O)CN1C=Nc2ccccc2S1(=O)=O`, for which the cytotoxicity at 70.5 h was -11.8%.

`Cc1noc(Cl)c1CCC(=O)N1CCN(c2ccccc2)CC1`: the cytotoxicity at 70.5 h worked out at 7.33%.

For the compound `O=C(CN1C=Nc2ccccc2S1(=O)=O)NCC1CC1`, the cytotoxicity at 70.5 h was -7.99%.

Regarding `COc1cc(CCC(=O)NC2CCCN(C)C2)ccc1OCC(F)(F)F` (stereo not drawn), the cytotoxicity at 70.5 h was -7.07%.

Regarding `CCc1ncncc1C(=O)N1CCN(Cc2ccsc2)CC1`, the cytotoxicity at 70.5 h was 7.59%.

`Cc1cc(NC(=O)CN2CCCC2Cn2nc(C)nc2C)on1` (stereo not drawn): the cytotoxicity at 70.5 h is -6.45%.

For the compound `Cc1cnn(C2CN(CC(=O)NCCOc3ccccc3)C2)c1`, the cytotoxicity at 70.5 h is -4.92%.

Regarding `O=C(COC1CCCCC1)NS(=O)(=O)c1ccc2c(c1)OCCCO2`, the cytotoxicity at 70.5 h came out at 13.6%.

For the compound `Cc1cc(CN2CCN(C(=O)NCCc3csc(C)n3)CC2)on1`, the cytotoxicity at 70.5 h is -11.6%.

Regarding `O=C(COC1CCCC1)NS(=O)(=O)c1ccc2c(c1)OCCCO2`, the cytotoxicity at 70.5 h was -6.27%.
